The source of these data is US10028934B2, “Substituted indazole derivatives active as kinase inhibitiors” (NERVIANO MEDICAL SCIENCES S.R.L., priority 2011, dated 2018).

One test deals with MOLM-13 cells. Description: In vitro cell proliferation assay, MOLM-13 (CellTiter-Glo). The conditions noted are these: human acute leukemia cells bearing FLT3-ITD mutation, 72 h. In kind it is cell-based. As for the experimental part: (§1) The human acute leukemia MOLM-13 AND MV-4-11 cells, bearing a FLT3-ITD mutation, were seeded (5000 cells/well) in white 384 well-plates in complete medium (RPMI 1640 plus 10% Fetal bovine serum) and treated with compounds dissolved in 0.1% DMSO, 24 h after seeding. The cells were incubated at 37° C. and 5% CO2 and after 72 h the plates were processed using CellTiter-Glo assay (Promega) following the manufacturer's instruction.
(§2) CellTiter-Glo is a homogenous method based on the quantification of the ATP present, an indicator of metabolitically active cells. ATP was quantified using a system based on luciferase and D-luciferin resultant into light generation. The luminescent signal was proportional to the number of cells present in culture. Briefly, 25 microL/well reagent solution were added to each well and, after 5 minutes shaking, microplates were read by Envision (PerkinElmer) luminometer. Inhibitory activity was evaluated comparing treated versus control data using Symyx Assay Explorer (Symyx Technologies Inc.) program. IC50 was calculated using sigmoidal interpolation curve.
A general note: ATP-based viability assays read luminescence as a measure of living cells.

The subject of a further test is MV-4-11 cells. The test is described as follows: In vitro cell proliferation assay, MV-4-11 (CellTiter-Glo). It counts as cell-based. The conditions noted are these: MV4-11; human acute leukemia cells bearing FLT3-ITD mutation, 72 h. As for the experimental part:
as §1, §2

For test [1], the target named is KIT kinase (GST-KIT cytoplasmic domain) (Homo sapiens (Human), UniProt P10721). The test is described as follows: Biochemical assay for inhibitors of KIT kinase activity. The conditions noted are these: pre activated enzyme 4 nM, 4.4 microM ATP, 60 minutes at r.t. As for the experimental part:
The GST-KIT cytoplasmic domain has been expressed in Sf21 cells infected for 66 hrs at 27° C. The recombinant protein has been purified by affinity on GSH-sepharose and eluted with glutathione. […] At the end of the phosphorylation reaction, the not reacted ATP, cold and radioactive, was captured by an excess of dowex ion exchange resin that eventually settled by gravity to the bottom of the reaction plate. […] 500 g of wet resin (SIGMA, custom prepared resin DOWEX 1×8 200-400 mesh, 2.5 Kg) were weighed out and diluted to 2 L in 150 mM sodium formate, pH 3.00. The resin was allowed to settle down overnight and then the supernatant was discarded. After three washes as above over a couple of days, the resin was allowed to settle and two volumes (with respect to the resin volume) were added of 150 mM sodium formate buffer. […] NO: 2). The peptide was purchased from American Peptide Company (Sunnyvale, Calif.). […] An automated station for serial dilutions (Biomek FX, Beckman) was used for producing 1:3 dilutions in 100% DMSO, from line A1 to A10, and for all the compounds in the column. […] The following dispensation into the plates plus 3 cycles of mixing, done by the robot itself, started the kinase reaction. At this point, the correct concentrations were restored for all the reagents. […]

Bounds are passed on as bounds.

Chain of KIT kinase (GST-KIT cytoplasmic domain) (P10721 544-976): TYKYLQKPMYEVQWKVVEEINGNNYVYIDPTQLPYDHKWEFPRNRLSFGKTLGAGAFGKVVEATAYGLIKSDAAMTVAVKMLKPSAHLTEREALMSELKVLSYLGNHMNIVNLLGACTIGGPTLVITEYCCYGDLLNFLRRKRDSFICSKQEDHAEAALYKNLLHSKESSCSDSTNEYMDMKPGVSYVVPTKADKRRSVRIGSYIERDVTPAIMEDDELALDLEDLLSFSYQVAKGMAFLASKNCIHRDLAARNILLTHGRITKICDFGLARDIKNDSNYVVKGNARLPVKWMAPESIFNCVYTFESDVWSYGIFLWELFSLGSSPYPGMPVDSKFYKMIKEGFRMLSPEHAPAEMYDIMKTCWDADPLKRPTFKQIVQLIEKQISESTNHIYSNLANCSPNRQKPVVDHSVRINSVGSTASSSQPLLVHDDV

One may read the IC50 as the concentration that inhibits the measured activity by half. A low value points to greater potency in that assay. As for `CN1CCN(c2ccc(C(=O)Nc3n[nH]c4cc(OCCOCc5ccc(F)cc5)ccc34)cc2)CC1` [Cpd. 32], the values for the IC50 (with MOLM-13 cells; with MV-4-11 cells; in test [1]) were below 50 nM, below 50 nM and 50 nM, respectively.

With `CN1CCN(c2ccc(C(=O)Nc3n[nH]c4cc(OCCOCc5ccc(C(F)(F)F)cc5)ccc34)cc2)CC1` [Cpd. 33, 4-(4-Methyl-piperazin-1-yl)-N-{6-[2-(4-trifluoromethyl-benzyloxy)-ethoxy]-1H-indazol-3-yl}-benzamide], the IC50 in the test on MOLM-13 cells was below 50 nM; with MV-4-11 cells it was below 50 nM; in test [1] it was 50 nM.
